What all share (type): cell-based
One assay concerns hamster HIT-T15 β-cells. The assay is described as follows: MTT cell survival assay in HIT-T15 β-cells. On the procedure:
MTT experiments were also performed in hamster HIT-T15 β-cells, to test the survival effect of UAG (1-28) or its fragments UAG (1-14), UAG (1-18), UAG (1-5) and UAG (17-28) in serum deprived medium, either alone or with IFN-γ/TNF-α/IL-1β. As for the experiments performed on INS-1E β-cells, the peptides were tested at increasing concentrations, ranging from 0.1 nM to 100 nM.
The survival effect of UAG (6-13), UAG (8-13), UAG (8-12), UAG (8-11), UAG (9-12) and UAG (9-11) was assessed in cytokine-treated HIT-T15 β-cells.
The protective effects of peptides UAG (8-13) and UAG (8-12) were found similar to those of UAG (1-14) and UAG (1-18). A peptide made of the inverse sequence of UAG (1-14) and named UAG (14-1), was used as negative control for these experiments (FIG. 5A). […] These effects were however lower than those of UAG (6-13) (FIG. 5B).
UAG fragments with alanine (Ala) substitutions at different amino acid positions (6 to 13) were tested with regards to their survival effects in HIT-T15 hamster β-cells. The cells were cultured in serum deprived medium, either alone or with IFN-γ/TNF-α/IL-1β. The peptides were tested at the concentrations of 1 nM to 100 nM. […] Under treatment with cytokines, where cell survival was reduced by ≈18% with respect to serum starved conditions, all Ala substitutions, except those at positions 10 and 11, completely reversed cell death and brought the survival rate to levels that were even higher than those under serum-free conditions, at both 1 nM and 100 nM concentrations. These effects were similar to those elicited by the original peptide UAG (6-13) (FIG. 11B).
Particularly, the best effect was exerted by Gly 6-UAG (6-13), whereas the lowest was seen using AcSer 6-UAG (6-13), AcSer 6-(D)Pro 7-UAG (6-13) (FIG. 12B).
(§1) Hamster HIT-T15 insulin-secreting β-cells were obtained and cultured as described (Refs. 14, 4). INS-1E rat β-cells were kindly provided by Prof. Claes B. Wollheim (University Medical Center, Geneva, Switzerland) and cultured as described (Refs. 14, 4). Cell culture reagents were from Invitrogen (Milano, Italy). Cytokines were from Biosource (Invitrogen, Italy).
(§2) Cell survival was assessed by 3-[4,5-dimethylthiazol-2-yl]-2,5diphenyltetrazolium bromide (MTT) as described previously (Ref. 4). Cells were seeded on 96-well plates at a density of 5×10^3 cells/well. After treatments, cells were incubated with 1 mg/ml MTT for ≈1 h. The medium was aspirated, and the formazan product solubilized with 100 μl DMSO. Viability was assessed by spectrophotometry at 570 nm absorbance using a 96-well plate reader.

The next assay relates to human pancreatic islets. The assay is described as follows: MTT cell survival assay in human pancreatic islets. Particulars: human islet cells, 1 nM to 100 nM. On the procedure:
The survival effect of UAG (1-14), UAG (1-18), UAG (1-5) and UAG (17-28), with respect to that of full length UAG (1-28), was assessed in human pancreatic islets by MTT. The peptides were tested in islet cells cultured in serum deprived medium, either alone or with IFN-γ/TNF-α/IL-1β (5 ng/ml each).
Human islets were obtained from pancreases of multiorgan donors as described (Ref. 4). Islet preparations with purity >70%, not suitable for transplantation, were provided by European Consortium for Islet Transplantation (ECIT) “Islets for Research Distribution Program,” Transplant Unit, Scientific Institute San Raffaele, Vita-Salute University, Milan. Islets (10,000) were cultured in CMRL (Invitrogen) with 10% FBS.
as §2

Another assay relates to INS-1E rat β-cells. The experiment in a line: MTT cell survival assay in INS-1E β-cells. Particulars: 0.1 nM to 100 nM. The procedure: The peptides were tested at increasing concentrations, ranging from 0.1 nM to 100 nM.
as §1, §2

The mark [1] stands for this setting: serum deprived medium with IFN-γ/TNF-α/IL-1β.
Setting [2] is: serum deprived medium with IFN-γ/TNF-α/IL-1β (5 ng/ml each).

“Also recorded” adds a separate entry of the source. Non-standard residues stand in square brackets, D forms with d. No end group written: not given here.

For the substance “Ac-Ser-Pro-Glu-His-Gln-Arg-Val-Gln-NH2 (Ac-SPEHQRVQ-NH2; listed as Homo sapiens) [AcSer 6-UAG (6-13)]”, the “cell survival (MTT)” value with hamster HIT-T15 β-cells (setting [1]) is “lowest”.

“Ac-Ser-pro-Glu-His-Gln-Arg-Val-Gln-NH2 (Ac-S[dP]EHQRVQ-NH2; listed as Homo sapiens) [AcSer 6-(D)Pro 7-UAG (6-13)]”: the “cell survival (MTT)” value in the assay on hamster HIT-T15 β-cells (setting [1]) is given as “lowest”.

With ESKKPPAKLQPR [UAG (17-28)], the “cell survival (MTT)” value in the assay with hamster HIT-T15 β-cells (serum deprived medium alone) is “no significant effect; also recorded: very little effect”; with hamster HIT-T15 β-cells (setting [1]), “no significant effect; also recorded: very little effect”; in the assay with human pancreatic islets (serum deprived medium alone), “significantly increased survival of islet cells”; with human pancreatic islets (setting [2]) it was “had no effect”; with INS-1E rat β-cells (serum deprived medium alone), “reduced, although significant, survival action; also recorded: only a trivial effect”; with INS-1E rat β-cells (setting [1]), “reduced effect; also recorded: only a trivial effect”.

Consider “Glu-His-Gln-Arg (EHQR; listed as Homo sapiens) [UAG (8-11)]”, for which the “cell survival (MTT)” value in the assay on hamster HIT-T15 β-cells (setting [1]) is given as “significant survival effect only at 100 nM”.

On to “Gly-Pro-Glu-His-Gln-Arg-Val-Gln-NH2 (GPEHQRVQ-NH2; listed as Homo sapiens) [Gly 6-UAG (6-13)]”, for which, in the assay on hamster HIT-T15 β-cells (setting [1]), the “cell survival (MTT)” value is listed as “best effect”.

In the case of “Gly-Ser-Ser-Phe-Leu (GSSFL; listed as Homo sapiens) [UAG (1-5)]”, the “cell survival (MTT)” value with hamster HIT-T15 β-cells (serum deprived medium alone) is “very little effect”; with hamster HIT-T15 β-cells (setting [1]), “slightly increased cell survival; also recorded: very little effect”; in the assay on human pancreatic islets (serum deprived medium alone) it was “little, although significant survival action at 10 nM”; in the assay on human pancreatic islets (setting [2]) it was “no cell protection”; with INS-1E rat β-cells (serum deprived medium alone), “reduced, although significant, survival action; also recorded: only a trivial effect”; with INS-1E rat β-cells (setting [1]), “reduced effect; also recorded: only a trivial effect”.

Turning to His-Gln-Arg [UAG (9-11)], the “cell survival (MTT)” value with hamster HIT-T15 β-cells (setting [1]) is reported as “no significant effect at both concentrations tested”.

As for “His-Gln-Arg-Val (HQRV; listed as Homo sapiens) [UAG (9-12)]”, in the assay on hamster HIT-T15 β-cells (setting [1]), the “cell survival (MTT)” value is “significantly increased cell survival at both the concentrations tested”.

For the origin of these results see US8318664B2, “Unacylated ghrelin fragments as therapeutic agent in the treatment of obesity” (Alize Pharma SAS, priority 2007, dated 2012).
